In PubChem BioAssay (NCI):
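Method: 48-hour compound exposure of cells in 96-well plates, five concentrations, linear interpolation of endpoints. TGI is the concentration that stops growth completely.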

How the values were obtained:
Assay in all cases: NCI anticancer screen, dose series, 48 h
HOP-62 NSCLC = test system: HOP-62 NSCLC
SK-MEL-2 melanoma = test system: SK-MEL-2 melanoma
NCI-H226 lung = test system: NCI-H226 lung
CCRF-CEM leukemia = test system: CCRF-CEM leukemia
HL-60(TB) leukemia = test system: HL-60(TB) leukemia
MDA-N = test system: MDA-N
SK-OV-3 ovarian = test system: SK-OV-3 ovarian
M14 melanoma = test system: M14 melanoma
SR leukemia = test system: SR leukemia
HCT-15 colon = test system: HCT-15 colon
COLO 205 colon = test system: COLO 205 colon
DU-145 prostate = test system: DU-145 prostate
HCT-116 colon = test system: HCT-116 colon
MOLT-4 leukemia = test system: MOLT-4 leukemia
T-47D breast = test system: T-47D breast
MALME-3M melanoma = test system: MALME-3M melanoma
SK-MEL-5 melanoma = test system: SK-MEL-5 melanoma
OVCAR-8 ovarian = test system: OVCAR-8 ovarian
SW-620 colon = test system: SW-620 colon
OVCAR-5 ovarian = test system: OVCAR-5 ovarian
NCI-H522 lung = test system: NCI-H522 lung
SK-MEL-28 melanoma = test system: SK-MEL-28 melanoma
BT-549 breast = test system: BT-549 breast
TK-10 renal = test system: TK-10 renal
MDA-MB-435 = test system: MDA-MB-435
A549 NSCLC = test system: A549 NSCLC
NCI-H23 lung = test system: NCI-H23 lung
ACHN renal = test system: ACHN renal
LOX IMVI melanoma = test system: LOX IMVI melanoma
CAKI-1 renal = test system: CAKI-1 renal
RXF 393 renal = test system: RXF 393 renal
SF-295 CNS = test system: SF-295 CNS
OVCAR-4 ovarian = test system: OVCAR-4 ovarian
SF-539 CNS = test system: SF-539 CNS
NCI/ADR-RES ovarian = test system: NCI/ADR-RES ovarian
MCF7 breast = test system: MCF7 breast
786-0 renal = test system: 786-0 renal
HT29 colon = test system: HT29 colon
SN12C renal = test system: SN12C renal
U251 CNS = test system: U251 CNS
SNB-19 CNS = test system: SNB-19 CNS
EKVX NSCLC = test system: EKVX NSCLC
SF-268 CNS = test system: SF-268 CNS
UACC-62 melanoma = test system: UACC-62 melanoma
MDA-MB-231 breast = test system: MDA-MB-231 breast
KM12 colon = test system: KM12 colon
A498 renal = test system: A498 renal
UACC-257 melanoma = test system: UACC-257 melanoma
SNB-75 CNS = test system: SNB-75 CNS
HS 578T breast = test system: HS 578T breast
NCI-H460 lung = test system: NCI-H460 lung
UO-31 renal = test system: UO-31 renal
HCC-2998 colon = test system: HCC-2998 colon
OVCAR-3 ovarian = test system: OVCAR-3 ovarian
RPMI-8226 leukemia = test system: RPMI-8226 leukemia
IGROV1 ovarian = test system: IGROV1 ovarian
PC-3 prostate = test system: PC-3 prostate
HOP-92 NSCLC = test system: HOP-92 NSCLC
K-562 leukemia = test system: K-562 leukemia

Structure (SMILES): COC(=O)C1=C(OC(=O)c2ccccc2)C(C(=O)OC)[C@@]2(O)[C@@H](C(=O)OC)[C@H](C)C[C@@H]1[C@@H]2C(=O)OC (some centres not stated)
- TGI (HOP-62 NSCLC): > 100 µM
- TGI (SK-MEL-2 melanoma): > 100 µM
- TGI (NCI-H226 lung): > 100 µM
- TGI (CCRF-CEM leukemia): > 100 µM
- TGI (HL-60(TB) leukemia): > 100 µM
- TGI (MDA-N): 63.5 µM
- TGI (SK-OV-3 ovarian): > 100 µM
- TGI (M14 melanoma): > 100 µM
- TGI (SR leukemia): > 100 µM
- TGI (HCT-15 colon): > 100 µM
- TGI (COLO 205 colon): 41.1 µM
- TGI (DU-145 prostate): > 100 µM
- TGI (HCT-116 colon): > 100 µM
- TGI (MOLT-4 leukemia): > 100 µM
- TGI (T-47D breast): > 100 µM
- TGI (MALME-3M melanoma): > 100 µM
- TGI (SK-MEL-5 melanoma): > 100 µM
- TGI (OVCAR-8 ovarian): > 100 µM
- TGI (SW-620 colon): > 100 µM
- TGI (OVCAR-5 ovarian): > 100 µM
- TGI (NCI-H522 lung): 33 µM
- TGI (SK-MEL-28 melanoma): > 100 µM
- TGI (BT-549 breast): 78.1 µM
- TGI (TK-10 renal): > 100 µM
- TGI (MDA-MB-435): > 100 µM
- TGI (A549 NSCLC): 71.6 µM
- TGI (NCI-H23 lung): > 100 µM
- TGI (ACHN renal): > 100 µM
- TGI (LOX IMVI melanoma): > 100 µM
- TGI (CAKI-1 renal): > 100 µM
- TGI (RXF 393 renal): 42.9 µM
- TGI (SF-295 CNS): > 100 µM
- TGI (OVCAR-4 ovarian): > 100 µM
- TGI (SF-539 CNS): 34.5 µM
- TGI (NCI/ADR-RES ovarian): 44.8 µM
- TGI (MCF7 breast): > 100 µM
- TGI (786-0 renal): > 100 µM
- TGI (HT29 colon): > 100 µM
- TGI (SN12C renal): > 100 µM
- TGI (U251 CNS): > 100 µM
- TGI (SNB-19 CNS): > 100 µM
- TGI (EKVX NSCLC): > 100 µM
- TGI (SF-268 CNS): > 100 µM
- TGI (UACC-62 melanoma): > 100 µM
- TGI (MDA-MB-231 breast): > 100 µM
- TGI (KM12 colon): > 100 µM
- TGI (A498 renal): 94.5 µM
- TGI (UACC-257 melanoma): > 100 µM
- TGI (SNB-75 CNS): > 100 µM
- TGI (HS 578T breast): > 100 µM
- TGI (NCI-H460 lung): > 100 µM
- TGI (UO-31 renal): > 100 µM
- TGI (HCC-2998 colon): 89.7 µM
- TGI (OVCAR-3 ovarian): > 100 µM
- TGI (RPMI-8226 leukemia): > 100 µM
- TGI (IGROV1 ovarian): > 100 µM
- TGI (PC-3 prostate): > 100 µM

Structure (SMILES): O=C(OCc1ccc([N+](=O)[O-])cc1)N1c2ccccc2[C@@]23O[C@]24CCC[C@H]3C#C/C=C\C#C[C@H]14
- TGI (SK-MEL-2 melanoma): > 100 µM
- TGI (NCI-H226 lung): > 100 µM
- TGI (CCRF-CEM leukemia): > 100 µM
- TGI (HL-60(TB) leukemia): > 100 µM
- TGI (MDA-N): > 100 µM
- TGI (SK-OV-3 ovarian): > 100 µM
- TGI (M14 melanoma): > 100 µM
- TGI (HCT-15 colon): > 100 µM
- TGI (COLO 205 colon): > 100 µM
- TGI (DU-145 prostate): > 100 µM
- TGI (HCT-116 colon): > 100 µM
- TGI (MOLT-4 leukemia): > 100 µM
- TGI (T-47D breast): > 100 µM
- TGI (MALME-3M melanoma): > 100 µM
- TGI (SK-MEL-5 melanoma): > 100 µM
- TGI (OVCAR-8 ovarian): > 100 µM
- TGI (SW-620 colon): > 100 µM
- TGI (OVCAR-5 ovarian): > 100 µM
- TGI (NCI-H522 lung): > 100 µM
- TGI (SK-MEL-28 melanoma): > 100 µM
- TGI (BT-549 breast): > 100 µM
- TGI (TK-10 renal): > 100 µM
- TGI (MDA-MB-435): > 100 µM
- TGI (A549 NSCLC): > 100 µM
- TGI (NCI-H23 lung): > 100 µM
- TGI (ACHN renal): > 100 µM
- TGI (LOX IMVI melanoma): > 100 µM
- TGI (CAKI-1 renal): > 100 µM
- TGI (RXF 393 renal): > 100 µM
- TGI (SF-295 CNS): > 100 µM
- TGI (OVCAR-4 ovarian): > 100 µM
- TGI (SF-539 CNS): > 100 µM
- TGI (NCI/ADR-RES ovarian): > 100 µM
- TGI (MCF7 breast): > 100 µM
- TGI (786-0 renal): > 100 µM
- TGI (HT29 colon): > 100 µM
- TGI (SN12C renal): > 100 µM
- TGI (U251 CNS): > 100 µM
- TGI (SNB-19 CNS): > 100 µM
- TGI (EKVX NSCLC): > 100 µM
- TGI (SF-268 CNS): > 100 µM
- TGI (UACC-62 melanoma): > 100 µM
- TGI (MDA-MB-231 breast): > 100 µM
- TGI (KM12 colon): > 100 µM
- TGI (A498 renal): > 100 µM
- TGI (HOP-92 NSCLC): > 100 µM
- TGI (UACC-257 melanoma): > 100 µM
- TGI (HS 578T breast): > 100 µM
- TGI (NCI-H460 lung): > 100 µM
- TGI (UO-31 renal): > 100 µM
- TGI (HCC-2998 colon): > 100 µM
- TGI (OVCAR-3 ovarian): > 100 µM
- TGI (K-562 leukemia): > 100 µM
- TGI (IGROV1 ovarian): > 100 µM
- TGI (PC-3 prostate): > 100 µM
